Calls of active or inactive are those of the source. Rule as the data show it, for most assays here: actives have a measured Kd and inactives only a lower limit.
Key:
[1] = molecular target: Tyrosine-protein kinase HCK (Homo sapiens, UniProt P08631)
[2] = molecular target: T1, Serine/threonine-protein kinase D3 (Homo sapiens, UniProt O94806)
T1 sequence (O94806 whole entry): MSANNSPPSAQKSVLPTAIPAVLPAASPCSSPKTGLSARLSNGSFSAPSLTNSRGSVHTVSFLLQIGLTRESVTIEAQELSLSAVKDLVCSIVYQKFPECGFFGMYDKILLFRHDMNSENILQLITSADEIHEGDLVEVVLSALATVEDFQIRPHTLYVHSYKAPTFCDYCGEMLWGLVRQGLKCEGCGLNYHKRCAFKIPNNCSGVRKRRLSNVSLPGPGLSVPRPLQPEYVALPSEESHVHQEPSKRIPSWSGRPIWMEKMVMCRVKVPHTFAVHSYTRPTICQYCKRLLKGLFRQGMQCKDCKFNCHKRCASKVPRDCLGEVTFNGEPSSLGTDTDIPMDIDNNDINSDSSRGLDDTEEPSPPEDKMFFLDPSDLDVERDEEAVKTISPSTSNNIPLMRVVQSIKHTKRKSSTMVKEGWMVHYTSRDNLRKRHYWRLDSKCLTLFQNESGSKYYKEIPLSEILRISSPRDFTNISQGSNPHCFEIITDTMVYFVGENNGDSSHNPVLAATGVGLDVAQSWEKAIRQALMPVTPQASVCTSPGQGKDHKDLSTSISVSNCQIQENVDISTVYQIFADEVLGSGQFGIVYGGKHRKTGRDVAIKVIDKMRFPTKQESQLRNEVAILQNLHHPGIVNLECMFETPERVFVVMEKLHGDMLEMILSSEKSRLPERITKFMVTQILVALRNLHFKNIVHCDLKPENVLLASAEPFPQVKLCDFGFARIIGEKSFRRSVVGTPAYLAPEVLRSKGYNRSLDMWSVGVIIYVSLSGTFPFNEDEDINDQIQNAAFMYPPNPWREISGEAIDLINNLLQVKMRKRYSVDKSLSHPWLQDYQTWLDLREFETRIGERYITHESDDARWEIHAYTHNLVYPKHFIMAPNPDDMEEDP

[3] = molecular target: T2, Serine/threonine-protein kinase 3 (Homo sapiens, UniProt Q13188)
T2 sequence (Q13188 whole entry): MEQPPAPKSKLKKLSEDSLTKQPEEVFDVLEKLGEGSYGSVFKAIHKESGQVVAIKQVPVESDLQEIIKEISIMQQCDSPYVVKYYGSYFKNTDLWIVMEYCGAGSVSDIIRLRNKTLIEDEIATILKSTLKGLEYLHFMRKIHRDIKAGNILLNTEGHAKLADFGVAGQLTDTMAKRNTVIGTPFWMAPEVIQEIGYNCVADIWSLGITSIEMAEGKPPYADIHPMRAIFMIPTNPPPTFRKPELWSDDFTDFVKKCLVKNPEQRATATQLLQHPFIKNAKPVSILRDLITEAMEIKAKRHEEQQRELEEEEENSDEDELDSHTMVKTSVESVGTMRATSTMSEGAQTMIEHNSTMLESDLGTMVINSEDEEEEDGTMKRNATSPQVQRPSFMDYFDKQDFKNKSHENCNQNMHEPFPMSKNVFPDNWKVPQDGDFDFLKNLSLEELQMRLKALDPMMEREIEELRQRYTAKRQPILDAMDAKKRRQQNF

[4] = molecular target: Receptor-interacting serine/threonine-protein kinase 2 (Homo sapiens, UniProt O43353)
[5] = molecular target: T3, Thyroid hormone receptor-associated protein 3 (Homo sapiens, UniProt Q9Y2W1)
T3 sequence (Q9Y2W1 whole entry): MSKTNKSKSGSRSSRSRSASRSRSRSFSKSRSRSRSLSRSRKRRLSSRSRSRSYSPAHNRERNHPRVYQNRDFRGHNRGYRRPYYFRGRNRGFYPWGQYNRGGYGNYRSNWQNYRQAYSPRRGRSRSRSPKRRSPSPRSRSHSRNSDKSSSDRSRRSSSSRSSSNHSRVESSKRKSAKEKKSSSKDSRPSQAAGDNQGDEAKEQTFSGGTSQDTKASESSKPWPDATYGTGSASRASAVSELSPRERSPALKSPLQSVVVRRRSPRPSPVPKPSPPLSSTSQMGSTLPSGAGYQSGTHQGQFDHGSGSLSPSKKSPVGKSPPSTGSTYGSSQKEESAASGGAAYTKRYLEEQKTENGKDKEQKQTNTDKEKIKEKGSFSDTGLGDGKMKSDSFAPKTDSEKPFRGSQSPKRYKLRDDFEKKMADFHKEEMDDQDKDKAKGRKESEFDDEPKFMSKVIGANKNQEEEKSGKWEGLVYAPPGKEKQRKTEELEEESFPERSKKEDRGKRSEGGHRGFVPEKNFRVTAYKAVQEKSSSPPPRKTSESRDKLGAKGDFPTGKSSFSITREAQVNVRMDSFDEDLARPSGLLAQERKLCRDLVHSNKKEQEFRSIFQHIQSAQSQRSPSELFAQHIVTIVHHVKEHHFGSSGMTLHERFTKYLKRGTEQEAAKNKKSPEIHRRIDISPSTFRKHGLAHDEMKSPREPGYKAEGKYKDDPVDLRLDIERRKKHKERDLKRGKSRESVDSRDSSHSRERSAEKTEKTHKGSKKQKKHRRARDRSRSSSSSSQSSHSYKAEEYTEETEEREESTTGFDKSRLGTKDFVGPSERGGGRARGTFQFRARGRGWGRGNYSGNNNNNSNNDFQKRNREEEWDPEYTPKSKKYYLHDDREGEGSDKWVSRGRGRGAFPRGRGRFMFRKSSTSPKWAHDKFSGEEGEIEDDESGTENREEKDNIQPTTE
Also: in the data inactive means no Kd found up to 30 µM.

Tyrosine-protein kinase HCK, sequence (P08631 whole entry): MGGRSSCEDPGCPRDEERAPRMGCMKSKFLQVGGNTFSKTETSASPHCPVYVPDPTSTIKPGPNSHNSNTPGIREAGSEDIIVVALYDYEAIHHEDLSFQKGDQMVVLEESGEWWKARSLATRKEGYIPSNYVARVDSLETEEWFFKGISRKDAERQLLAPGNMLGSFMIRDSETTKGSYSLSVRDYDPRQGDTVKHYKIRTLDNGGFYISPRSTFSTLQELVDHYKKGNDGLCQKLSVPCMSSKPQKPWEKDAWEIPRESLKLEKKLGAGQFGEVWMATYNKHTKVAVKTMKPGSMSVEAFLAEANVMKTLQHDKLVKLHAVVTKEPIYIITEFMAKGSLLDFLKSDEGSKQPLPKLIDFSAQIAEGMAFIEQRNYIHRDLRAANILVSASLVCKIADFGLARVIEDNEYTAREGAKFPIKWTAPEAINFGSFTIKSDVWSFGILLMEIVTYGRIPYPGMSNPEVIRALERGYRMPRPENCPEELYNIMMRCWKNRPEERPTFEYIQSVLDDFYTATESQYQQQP
Receptor-interacting serine/threonine-protein kinase 2, sequence (O43353 whole entry): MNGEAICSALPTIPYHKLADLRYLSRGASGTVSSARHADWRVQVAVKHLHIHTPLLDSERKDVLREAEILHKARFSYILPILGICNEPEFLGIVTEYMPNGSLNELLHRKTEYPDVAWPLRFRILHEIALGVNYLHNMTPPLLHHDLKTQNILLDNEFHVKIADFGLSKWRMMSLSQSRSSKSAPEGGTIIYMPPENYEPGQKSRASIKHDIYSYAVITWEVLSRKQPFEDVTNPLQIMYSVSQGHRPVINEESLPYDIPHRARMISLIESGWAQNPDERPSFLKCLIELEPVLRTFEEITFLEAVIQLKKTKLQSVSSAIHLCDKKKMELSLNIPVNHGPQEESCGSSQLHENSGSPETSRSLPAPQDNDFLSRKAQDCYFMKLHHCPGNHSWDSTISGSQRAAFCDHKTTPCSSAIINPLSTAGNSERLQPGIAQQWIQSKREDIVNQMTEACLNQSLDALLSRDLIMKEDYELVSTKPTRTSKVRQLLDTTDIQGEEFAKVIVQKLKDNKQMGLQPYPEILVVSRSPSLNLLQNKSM

SMILES | Kd [1] | Kd [2] | Kd [3] | Kd [4] | Kd [5]
Cn1cc(-c2cnc3ccc4ccc(CS(=O)(=O)NCc5ccccn5)cc4c(=O)c3c2)cn1 [MK-8033] | > 30 µM (inactive) | > 30 µM (inactive) | > 30 µM (inactive) | > 30 µM (inactive) | > 30 µM (inactive)
CN(C[C@@H]1COCCO1)S(=O)(=O)Nc1ccc2ccc3ncc(-c4cnn(C)c4)cc3c(=O)c2c1 [MK-2461] | > 30 µM (inactive) | > 30 µM (inactive) | > 30 µM (inactive) | > 30 µM (inactive) | –
CC(=O)c1cnc2ccc(-c3cc(Cl)c(O)c(Cl)c3)nc2c1N[C@H]1CC[C@H](CN(C)C)CC1 | 0.116 µM (active) | 0.093 µM (active) | 0.07 µM (active) | 0.005 µM (active) | –
CC(C)(C)c1nc(-c2cccc(NS(=O)(=O)c3c(F)cccc3F)c2F)c(-c2ccnc(N)n2)s1 [DABRAFENIB] | 1.65 µM | 0.12 µM (active) | – | 0.106 µM (active) | > 30 µM (inactive)
Cc1nc2cc(-n3ncc(C(=O)c4cc5ccccc5[nH]4)c3N)ccc2[nH]1 [FGFR INHIBITOR DEBIO 1347] | > 30 µM (inactive) | > 30 µM (inactive) | > 30 µM (inactive) | > 30 µM (inactive) | –
CCn1cc(-c2ccnc3[nH]c(-c4cccc(CN(C)C)c4)cc23)c(-c2ccc(NC(=O)N(C)C)cc2)n1 [GSK-1070916] | > 30 µM (inactive) | 1.93 µM (active) | > 30 µM (inactive) | 0.611 µM (active) | –
C[C@@H](N)c1ccc(C(=O)Nc2ccnc3[nH]ccc23)cc1 [Y-39983] | > 30 µM (inactive) | – | > 30 µM (inactive) | > 30 µM (inactive) | –
COc1cc(Nc2ncc3c(n2)-c2ccc(Cl)cc2C(c2c(F)cccc2OC)=NC3)ccc1C(=O)O [ALISERTIB] | – | – | – | > 30 µM (inactive) | > 30 µM (inactive)
O=C(Nc1cc(C(F)(F)F)cc(C(F)(F)F)c1)c1cc(Cl)ccc1O [IMD-0354] | > 30 µM (inactive) | > 30 µM (inactive) | – | > 30 µM (inactive) | > 30 µM (inactive)
CCS(=O)(=O)c1cccc(-c2cc(C(=O)NC3CCN(C)CC3)c(C)c3[nH]c4ncc(C)cc4c23)c1 [TAK-901] | 0.143 µM (active) | > 30 µM (inactive) | 2.76 µM (active) | > 30 µM (inactive) | –
N#CC[C@H](C1CCCC1)n1cc(-c2ncnc3[nH]ccc23)cn1 [RUXOLITINIB] | – | – | – | – | > 30 µM (inactive)
CNC(=O)c1nn(C)c2c1C(C)(C)Cc1cnc(Nc3ccc(N4CCN(C)CC4)cc3)nc1-2 [MILCICLIB] | 1.32 µM (active) | 0.135 µM (active) | > 30 µM (inactive) | > 30 µM (inactive) | –
Cn1ncc(Cl)c1-c1cc(C(=O)N[C@H](CN)Cc2ccc(F)c(F)c2)oc1Cl [UPROSERTIB] | > 30 µM (inactive) | 2.64 µM (active) | > 30 µM (inactive) | > 30 µM (inactive) | –
CC(=O)NCC(=O)N1[C@@H]2CC[C@H]1c1ccc(Nc3ncc(C(F)(F)F)c(NC4CCC4)n3)cc12 [PF-03814735] | > 30 µM (inactive) | – | – | > 30 µM (inactive) | > 30 µM (inactive)
COc1ncc(-c2ccc3nccc(-c4ccnnc4)c3c2)cc1NS(=O)(=O)c1ccc(F)cc1F [OMIPALISIB] | > 30 µM (inactive) | > 30 µM (inactive) | > 30 µM (inactive) | > 30 µM (inactive) | –
C[C@@H](Oc1cc(C(=O)Nc2ccc(C(=O)N3CCN(C)CC3)cc2)nnc1N)c1c(Cl)ccc(F)c1Cl | > 30 µM (inactive) | > 30 µM (inactive) | > 30 µM (inactive) | > 30 µM (inactive) | –
Cc1cccc(-c2nn3c(c2-c2ccnc4ccc(C(N)=O)cc24)CCC3)n1 [GALUNISERTIB] | > 30 µM (inactive) | > 30 µM (inactive) | > 30 µM (inactive) | 0.038 µM (active) | –
O=C(Nc1nc2cccc(-c3ccc(CN4CCS(=O)(=O)CC4)cc3)n2n1)C1CC1 [FILGOTINIB] | > 30 µM (inactive) | > 30 µM (inactive) | > 30 µM (inactive) | > 30 µM (inactive) | –
COc1cc([C@@H]2c3cc4c(cc3[C@H](O)[C@H]3COC(=O)[C@@H]23)OCO4)cc(OC)c1OC [AXL-1717] | > 30 µM (inactive) | > 30 µM (inactive) | > 30 µM (inactive) | > 30 µM (inactive) | –
Cc1[nH]c(/C=C2\C(=O)Nc3ccccc32)c(C)c1CCC(=O)O [ORANTINIB] | – | – | – | > 30 µM (inactive) | > 30 µM (inactive)
CNC(=O)c1ccccc1Sc1ccc2c(/C=C/c3ccccn3)n[nH]c2c1 [AXITINIB] | – | – | – | – | > 30 µM (inactive)
Nc1ncnc2c1c(-c1cccc(OCc3ccccc3)c1)cn2[C@H]1C[C@@H](CN2CCC2)C1 [AEW-541] | 0.623 µM (active) | > 30 µM (inactive) | > 30 µM (inactive) | 0.355 µM (active) | –
C[C@@H](Oc1cc(-n2cnc3ccc(CN4CCN(C)CC4)cc32)sc1C(N)=O)c1ccccc1C(F)(F)F [GSK-461364] | – | – | – | – | > 30 µM (inactive)
CNC(=O)c1cc(Oc2ccc(NC(=O)Nc3cc(C(C)(C)C)nn3-c3ccc4ncccc4c3)c(F)c2)ccn1 [REBASTINIB] | – | > 30 µM (inactive) | 12.1 µM (active) | > 30 µM (inactive) | > 30 µM (inactive)
COc1c(OCCCN2CCOCC2)ccc2c1N=C(NC(=O)c1cnc(N)nc1)N1CCN=C21 [COPANLISIB] | > 30 µM (inactive) | > 30 µM (inactive) | > 30 µM (inactive) | > 30 µM (inactive) | –
CNC(=O)c1cccc2cc(Oc3ccnc4cc(OCC5(N)CC5)c(OC)cc34)ccc12 [LUCITANIB] | > 30 µM (inactive) | > 30 µM (inactive) | > 30 µM (inactive) | 0.199 µM (active) | –
C=CC(=O)Nc1cc2c(Nc3ccc(F)c(Cl)c3)ncnc2cc1C#CC(C)(C)N1CCN(C)CC1 [AV-412 FREE BASE] | > 30 µM (inactive) | > 30 µM (inactive) | > 30 µM (inactive) | > 30 µM (inactive) | –
NC(=O)Nc1cc(-c2cccc(F)c2)sc1C(=O)N[C@H]1CCCNC1 [AZD-7762] | 0.103 µM (active) | 2.14 µM (active) | – | > 30 µM (inactive) | > 30 µM (inactive)
NC(=O)c1c(OCc2c(F)cc(Br)cc2F)nsc1NC(=O)NCCCCN1CCCC1 [OSI-632] | > 30 µM (inactive) | – | – | 0.958 µM (active) | > 30 µM (inactive)
O=C(Nc1c[nH]nc1-c1nc2cc(CN3CCOCC3)ccc2[nH]1)NC1CC1 [AT-9283] | 0.664 µM (active) | – | > 30 µM (inactive) | > 30 µM (inactive) | > 30 µM (inactive)

Source: ChEMBL document CHEMBL3991601, “The target landscape of clinical kinase drugs” (Science, 2017)
